Test results as given in patent US6465476B1, “Immuno-modulator exhibiting antimicrobial and anti-mycrobacterial activities, method for producing the same and pharmaceutical preparation” (priority 1997, dated 2002).
Where two headings read alike, the source gives them in different places.

Legend:
macrophages = assay: Phagocytic activity of macrophages (clearance from blood); type: in vivo, mice; conditions: 500 μg per mouse per os
Excerpt: The influence of the preparations in question on the phagocytic activity of macrophages was studid from clearence of the carcass in blood taken from the retroorbital sinus of mice that received the preparations per os. The results were estimated on the phagocytic index α (see Table 4).

Storage stability = type: physicochemical
Excerpt: More precisely, isophonum is produced by boiling equimolecular amounts of isonicotinic acid hydrazide and 6-methyluracyl-5-sulfochloride in anhydrous acetonitrile. The samples of isophonum maintain their properties during the period of time of 3 years.

leprosy mycobacteria = assay: Example 3, patient I., lepromatose-typed leprosy, combination treatment; type: in vivo, human
Procedure: They had been ill for 8 years. BIN=66.8-10.8-5.5 where BIN means bacteriological index. […] HI=5,4 where HI means histological index. The patient was ordered the following treatment: 200 mg of isophonum internally twice a day, 200 mg of diuciphonum i.m. and 100 mg dimocifon internally twice a day.
After 8 months of treatment the agent of leprosy vanished in the scrape of nasal mucosa, BIN was 8.3-14.2-4.2, the immunologic parameters normalized. Atfer a year of treatment many of the infiltrates resolved and the other sharply diminished in size and became soft and elastic with their colour changed from rust-brown to cyanotic. BIN became 5.7-4.8-5.3.
There came lymphocytes in moderate numbers. […] The patient continues to undergo treatment.

[1] = Example 2, patient D., bronchiectatic disease; type: in vivo, human; conditions: daily dose 400 mg
Procedure: The patient was admitted to a clinic with a diagnosis “bronchiectatic disease”. Concomitant diseases were chronic tonsillitis, diffuse enlargement of thyroid approximately of the first or the second degree.
According to the protocol of clinical tests the patient was ordered the intake of isophonum for the periode of 30 days in a daily dose of 400 mg. On the 14th or 15th day of intake of the preparation the morning sputum discharge considerably diminished in quantity and changed in character from pussy to mucous, the cough ceased and the patient's general state of health and mood improved.

[2] = system: chlamydious infection, PCND; assay: Double blind clinical test, chlamydiosis and pulmonary chronic nonspecific diseases; type: in vivo, human
Procedure: The investigation was carried out randomizedly by a “double blind method” on 45 patients aged 25 to 49 years.
The group I consisting of 15 patients (10 persons with pulmonary chronic nonspecific diseases (PCND), 6 of them having chronic catarrhal obstructive bronchitis and 4 having chronic catarrhal nonobstructive bronchitis; 4 persons with chlamydious infection and one person with ureaplasmic infection) received the preparation claimed as monotherapy in a daily dose of 200 mg during 30 days. The group II consisting of 15 patients (8 persons with chlamydious infection, 7 persons with PCND, 5 of them having chronic catarrhal bronchitis, 2 having bronchiectatic disease) received the preparation of the present invention as monotherapy in a daily dose of 400 mg during 30 days. The group III consisting of 15 patients (13 persons with PCND, 7 of them having chronic catarrhal nonobstructive bronchitis and 6 having chronic catarrhal obstructive bronchitis; 2 persons with chlamydious infection) received a placebo.

Solubility = type: physicochemical
Procedure: It is soluble in dimethylformamide, dimethylsulfoxide, deluted acids and alkalies; f. p.=255-256° C. The structure of matter is confirmed by the data of PMR-spectroskopy.

white unbred mice = assay: Toxicity on white unbred mice by Litchfild-Wilkokson's procedure; type: in vivo; conditions: white unbred mice 18 to 20 g, sharp experiment
[3] = system: tuberculosis mycobacteria H37Rv (USSR H37Rv); type: in vivo, tuberculosis mycobacteria; mice of the CBA line; conditions: for Damage index / Life duration / Weight of the lung: USSR H37Rv
[4] = system: antibody-forming cells (AFC) in the spleens; assay: Antibody-forming cells in the spleen, immunodeficiency caused by irradiation (Jeme-Nordin's procedure); type: in vivo, mice F1 (CBA×C57BL/6); conditions: irradiated mice 4 Gy
Procedure: Determination of immunotropic activity of isophonum was carried out. Immunotropic activity of isophonum was determined on a model of immunodeficiency caused by irradiation. To create an immunodeficient state the mice F1 (CBA×C57BL/6) were irradiated with gamma-rays on a radioterapeutic apparatus in a dose of 4 Gy (Gy is the irradiation unit gray) at an irradiation dose power of 0.55 Gr/min. The number of antibody-forming cells (AFC) in the spleens was calculated by Jeme-Nordin's procedure. Isophonum and diuciphonum were introduced per os over a wide range of doses. The investigation results are represented in Table 1.

[5] = system: agent of leprosy (mycobacteria of leprosy)
[6] = after a year, combination with diuciphonum and dimocifon
[7] = leprosy patients, after one month, 0.6 g daily
[8] = leprosy patients, after three months, 0.6 g daily
[9] = leprosy patients, before treatment

In the case of `Cc1[nH]c(=O)[nH]c(=O)c1S(=O)(=O)NNC(=O)c1ccncc1.O` [Isophonum, N-(6-methyl-2,4-dioxo-1,2,3,4-tetrahydro-5-pyrimidinsulfon)-N′-isonicotinoylhydrazide hydrate], the Phagocytic index (macrophages) is reported as 6.55 ± 0.06, the “stimulation of the phagocytic activity of macrophages” value (macrophages) is reported as 56% and the “Phagocytic index, percent of controls” value (macrophages; controls 100%) is reported as “(156%)”. For the same molecule, the “period of time during which samples maintain their properties” value (Storage stability) was 3 years, the “HI (histological index)” value (leprosy mycobacteria; [6]) was 4.8 and the “amount of B-lymphocytes” value (leprosy mycobacteria; [6]) was 12%. The “amount of T-helpers” value (leprosy mycobacteria; [6]) was 66%, the “amount of T-lymphocytes” value (leprosy mycobacteria; [6]) was 85% and the immunoregilatory index (leprosy mycobacteria; [6]) was 3.4. The “total number of lymphocytes” value (leprosy mycobacteria; [6]) was 51%, the “HI (histological index)” value (leprosy mycobacteria; patient I., on hospitalization) was 5,4 and the “day of considerable improvement of clinical status and general blood analysis” value [1] was 20 days. For the same molecule, the “day of considerable improvement of immune status parameters” value [1] was 31 days, the side effects ([2]; dose of 200 mg and dose of 400 mg) was “does not have any side effects” and the “number of patients with improvement of clinico-immunologic indices” value ([2]; group I, 15 patients, 200 mg per day, 30 days) was 14 people. The “number of patients with improvement of clinico-immunologic parameters” value ([2]; group II, 15 patients, 400 mg daily, 30 days) was 14 persons, the “signs of individual intolerance” value ([2]; one patient of group I, 200 mg per day, 3rd day of intake) was “nausea and vomiting” and the “solubility in dimethylformamide, dimethylsulfoxide, deluted acids and alkalies” value (Solubility) was “soluble”. For the same molecule, the “solubility in water or usual organic solvents” value (Solubility) was “difficult to dissolve”, the toxicity (white unbred mice) was “exceed 7000 mg/kg” and the Damage index ([3]; 100 μg per mouse) was 1.91 ± 0.18. For the same molecule, the Life duration ([3]; 100 μg per mouse) was 34.6 ± 4.8, the “Weight of the lung” value ([3]; 100 μg per mouse) was 507.0 ± 48.4 and the Damage index ([3]; 200 μg per mouse) was 1.81 ± 0.21. The Life duration ([3]; 200 μg per mouse) was 35.7 ± 5.2, the “Weight of the lung” value ([3]; 200 μg per mouse) was 495.4 ± 56.1 and the antituberculous action ([3]; mouse, in vivo) was “pronounced antituberculous action”. The “AFC-number in the spleen” value ([4]; 10 μg per mouse per os) was 1013 ± 126, the “Immune response stimulation index” value ([4]; 10 μg per mouse per os) was 3.63 ± 0.57 and the “AFC-number in the spleen” value ([4]; 100 μg per mouse per os) was 1173 ± 125. The “Immune response stimulation index” value ([4]; 100 μg per mouse per os) was 4.28 ± 0.8, the “AFC-number in the spleen” value ([4]; 1000 μg per mouse per os) was 1216 ± 124 and the “Immune response stimulation index” value ([4]; 1000 μg per mouse per os) was 4.46 ± 0.9. For the same molecule, the “shortening of the length of stationary treatment of the leprous patients” value ([5]; human, in vivo) was “two-fold”, the “tolerability, side effects” value ([5]; human, in vivo) was “well tolerable, has no side effects” and the “time after which the agent of leprosy disappeared in scrapes of nasal mucosa” value ([5]; leprosy patients, 0.6 g daily) was 3 months. For the same molecule, the B-lymphocytes [5, 7] was 10.0 ± 0.2, the T-helpers [5, 7] was 28.2 ± 0.3 and the T-lymphocytes [5, 7] was 43.4 ± 0.7. For the same molecule, the T-suppressors [5, 7] was 20.0 ± 0.4, the “Th/Ts (immunoregulatory index)” value [5, 7] was 1.4 and the B-lymphocytes [5, 8] was 11.4 ± 0.4. For the same molecule, the T-helpers [5, 8] was 48.4 ± 1.2, the T-lymphocytes [5, 8] was 60.2 ± 0.9 and the T-suppressors [5, 8] was 21.2 ± 0.4. For the same molecule, the “Th/Ts (immunoregulatory index)” value [5, 8] was 2.3 ± 0.1, the B-lymphocytes [5, 9] was 8.4 ± 0.2 and the T-helpers [5, 9] was 20.2 ± 0.2. For the same molecule, the T-lymphocytes [5, 9] was 28.6 ± 0.1, the T-suppressors [5, 9] was 20.4 ± 0.3 and the “Th/Ts (immunoregulatory index)” value [5, 9] was 1.0.
